{"source": "patent US9408852B2", "about": "“Method of lowering serum uric acid levels with (S)-tofisopam” (PHARMOS CORPORATION, priority 2011, dated 2016)", "key": {"serum uric acid [1]": {"system": "serum uric acid", "assay": "Serum uric acid after single oral doses in male healthy volunteers (Example 2)", "type": "in vivo, human", "details": "for Mean CFB (change from baseline) in uric acid levels: male healthy volunteers, n = 6", "protocol": "Male healthy volunteers received 50-400 mg enantiomerically-pure (S)-tofisopam by oral administration. Mean serum uric acid values fell by 23% to 30% within 4 hours after receiving single doses (Table 1)."}, "serum uric acid [2]": {"system": "serum uric acid", "assay": "Serum uric acid in healthy men and postmenopausal women, single-dose and multiple-dose phases (Example 3)", "type": "in vivo, human", "text": "(§1) In another study in healthy men and postmenopausal women, the trial period included a single-dose phase (Day 1) and a multiple-dose phase (Days 2-6). […] With multiple-dose oral administration (twice a day (BID) or three times a day (TID) on days 2-6), this decrease was more pronounced."}, "[3]": {"system": "fractional excretion of uric acid", "assay": "Post hoc analysis of clinical trial specimens: fractional excretion of uric acid and renal function (Example 3)", "type": "in vivo, human", "details": "50 mg TID", "text": "as §1"}, "xanthine oxidase": {"target": "xanthine oxidase (Homo sapiens, UniProt P47989)", "sequence (P47989 whole entry, species assumed)": "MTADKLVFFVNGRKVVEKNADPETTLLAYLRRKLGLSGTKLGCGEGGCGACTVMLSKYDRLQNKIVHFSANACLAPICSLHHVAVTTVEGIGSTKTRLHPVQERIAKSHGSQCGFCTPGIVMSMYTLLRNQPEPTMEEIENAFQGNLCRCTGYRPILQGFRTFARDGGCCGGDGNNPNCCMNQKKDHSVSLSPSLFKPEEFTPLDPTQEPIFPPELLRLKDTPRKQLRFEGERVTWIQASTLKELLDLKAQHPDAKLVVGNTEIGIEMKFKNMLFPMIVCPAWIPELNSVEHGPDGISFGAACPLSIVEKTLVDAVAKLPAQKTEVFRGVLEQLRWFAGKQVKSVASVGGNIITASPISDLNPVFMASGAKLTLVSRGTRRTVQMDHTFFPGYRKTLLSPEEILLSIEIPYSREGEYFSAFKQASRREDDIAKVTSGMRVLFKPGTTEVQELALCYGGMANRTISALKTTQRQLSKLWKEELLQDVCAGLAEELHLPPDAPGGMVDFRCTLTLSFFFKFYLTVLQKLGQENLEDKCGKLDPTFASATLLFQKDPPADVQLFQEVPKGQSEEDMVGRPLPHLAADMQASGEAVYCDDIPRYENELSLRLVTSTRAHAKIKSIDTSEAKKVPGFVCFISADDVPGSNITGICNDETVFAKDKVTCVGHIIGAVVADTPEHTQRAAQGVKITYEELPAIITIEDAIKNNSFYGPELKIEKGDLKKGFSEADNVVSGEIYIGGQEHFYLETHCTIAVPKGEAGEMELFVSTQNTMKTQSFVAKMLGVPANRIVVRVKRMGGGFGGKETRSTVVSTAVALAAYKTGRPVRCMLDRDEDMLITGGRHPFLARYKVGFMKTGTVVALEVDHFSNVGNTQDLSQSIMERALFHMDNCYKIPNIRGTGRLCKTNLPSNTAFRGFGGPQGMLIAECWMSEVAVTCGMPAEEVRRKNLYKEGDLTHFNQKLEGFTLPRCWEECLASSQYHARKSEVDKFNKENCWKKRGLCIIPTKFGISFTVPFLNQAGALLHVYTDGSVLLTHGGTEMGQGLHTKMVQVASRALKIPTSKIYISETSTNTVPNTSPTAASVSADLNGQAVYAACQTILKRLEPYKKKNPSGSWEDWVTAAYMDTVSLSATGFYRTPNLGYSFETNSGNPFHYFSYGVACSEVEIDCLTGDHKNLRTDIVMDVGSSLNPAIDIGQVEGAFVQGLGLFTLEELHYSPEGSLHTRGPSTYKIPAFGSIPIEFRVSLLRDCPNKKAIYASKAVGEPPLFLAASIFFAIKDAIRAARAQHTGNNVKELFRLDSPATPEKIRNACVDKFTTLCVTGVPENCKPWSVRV", "assay": "Xanthine oxidase inhibition", "type": "biochemical", "details": "unlike allopurinol"}, "serum uric acid [4]": {"system": "serum uric acid", "assay": "Serum uric acid in male and female patients with hyperuricemia and gout, 7 days (Example 7)", "type": "in vivo, human", "details": "50 mg qd Day 1 and Day 7, tid Days 2 to 6, hyperuricemia and gout", "protocol": "The study lasted 7 days, and patients were treated with placebo or 50 mg of enantiomerically-pure (S)-tofisopam once a day (qd) on Day 1 and Day 7 of the study, and with placebo or 50 mg of enantiomerically-pure (S)-tofisopam three times a day (tid) for Days 2 to 6 of the study. […] In Table 6, days indicated with a minus sign (e.g. D-1) indicate the time point corresponding to that number of days before treatment was initiated. For example, D-14 is the time point fourteen days before treatment was initiated."}, "[5]": {"details": "Day 1 to Day 2: Day 1 0 h + Day 2"}}, "note": "Values joined by “and” are separate entries in the source; they are usually repeats but may differ in a detail not shown here. Equal values may be shown once."}
{"smiles": "CC[C@@H]1C(C)=NN=C(c2ccc(OC)c(OC)c2)c2cc(OC)c(OC)cc21", "note": "[(S)-tofisopam]", "values": [{"measurement": "Mean CFB (change from baseline) in uric acid levels", "setting": "serum uric acid [1]; single oral dose 50 mg, 4 hours after dose", "result": "−23", "unit": "%"}, {"measurement": "Mean CFB (change from baseline) in uric acid levels", "setting": "serum uric acid [1]; single oral dose 50 mg, 24 hours after dose", "result": "−25", "unit": "%"}, {"measurement": "Mean CFB (change from baseline) in uric acid levels", "setting": "serum uric acid [1]; single oral dose 50 mg, 48 hours after dose", "result": "−24", "unit": "%"}, {"measurement": "Mean CFB (change from baseline) in uric acid levels", "setting": "serum uric acid [1]; single oral dose 100 mg, 4 hours after dose", "result": "−25", "unit": "%"}, {"measurement": "Mean CFB (change from baseline) in uric acid levels", "setting": "serum uric acid [1]; single oral dose 100 mg, 24 hours after dose", "result": "−28", "unit": "%"}, {"measurement": "Mean CFB (change from baseline) in uric acid levels", "setting": "serum uric acid [1]; single oral dose 100 mg, 48 hours after dose", "result": "−29", "unit": "%"}, {"measurement": "Mean CFB (change from baseline) in uric acid levels", "setting": "serum uric acid [1]; single oral dose 200 mg, 4 hours after dose", "result": "−29", "unit": "%"}, {"measurement": "Mean CFB (change from baseline) in uric acid levels", "setting": "serum uric acid [1]; single oral dose 200 mg, 24 hours after dose", "result": "−36", "unit": "%"}, {"measurement": "Mean CFB (change from baseline) in uric acid levels", "setting": "serum uric acid [1]; single oral dose 200 mg, 48 hours after dose", "result": "−37", "unit": "%"}, {"measurement": "Mean CFB (change from baseline) in uric acid levels", "setting": "serum uric acid [1]; single oral dose 300 mg, 4 hours after dose", "result": "−30", "unit": "%"}, {"measurement": "Mean CFB (change from baseline) in uric acid levels", "setting": "serum uric acid [1]; single oral dose 300 mg, 24 hours after dose", "result": "−48", "unit": "%"}, {"measurement": "Mean CFB (change from baseline) in uric acid levels", "setting": "serum uric acid [1]; single oral dose 300 mg, 48 hours after dose", "result": "−49", "unit": "%"}, {"measurement": "Mean CFB (change from baseline) in uric acid levels", "setting": "serum uric acid [1]; single oral dose 400 mg, 4 hours after dose", "result": "−27", "unit": "%"}, {"measurement": "Mean CFB (change from baseline) in uric acid levels", "setting": "serum uric acid [1]; single oral dose 400 mg, 24 hours after dose", "result": "−48", "unit": "%"}, {"measurement": "Mean CFB (change from baseline) in uric acid levels", "setting": "serum uric acid [1]; single oral dose 400 mg, 48 hours after dose", "result": "−45", "unit": "%"}, {"measurement": "Time course of uric acid levels after single dose", "setting": "serum uric acid [1]; single oral doses 50-400 mg, 4, 24 and 48 hours", "result": "decreased further up to the 24-hour timepoint, with no further decrease at 48 hours"}, {"measurement": "Dose relation of decreases in uric acid levels", "setting": "serum uric acid [1]; single oral doses 50-400 mg, slightly lower decreases at 400 mg", "result": "dose-related up to the 300 mg dose"}, {"measurement": "Change from Baseline serum uric acid", "setting": "serum uric acid [2]; 50 mg TID (single dose Day 1), Postmenopausal women, Day 2 AM", "result": "−27", "unit": "%"}, {"measurement": "Change from Baseline serum uric acid", "setting": "serum uric acid [2]; 50 mg TID (single dose Day 1), Postmenopausal women, Day 4 AM", "result": "−58", "unit": "%"}, {"measurement": "Change from Baseline serum uric acid", "setting": "serum uric acid [2]; 50 mg TID (single dose Day 1), Postmenopausal women, Day 7 AM", "result": "−65", "unit": "%"}, {"measurement": "Change from Baseline serum uric acid", "setting": "serum uric acid [2]; 50 mg TID (single dose Day 1), Young men, Day 2 AM", "result": "−19", "unit": "%"}, {"measurement": "Change from Baseline serum uric acid", "setting": "serum uric acid [2]; 50 mg TID (single dose Day 1), Young men, Day 4 AM", "result": "−63", "unit": "%"}, {"measurement": "Change from Baseline serum uric acid", "setting": "serum uric acid [2]; 50 mg TID (single dose Day 1), Young men, Day 7 AM", "result": "−59", "unit": "%"}, {"measurement": "Change from Baseline serum uric acid", "setting": "serum uric acid [2]; 150 mg BID (single dose Day 1), Postmenopausal women, Day 2 AM", "result": "−48", "unit": "%"}, {"measurement": "Change from Baseline serum uric acid", "setting": "serum uric acid [2]; 150 mg BID (single dose Day 1), Postmenopausal women, Day 4 AM", "result": "−76", "unit": "%"}, {"measurement": "Change from Baseline serum uric acid", "setting": "serum uric acid [2]; 150 mg BID (single dose Day 1), Postmenopausal women, Day 7 AM", "result": "−71", "unit": "%"}, {"measurement": "Change from Baseline serum uric acid", "setting": "serum uric acid [2]; 150 mg BID (single dose Day 1), Young men, Day 2 AM", "result": "−31", "unit": "%"}, {"measurement": "Change from Baseline serum uric acid", "setting": "serum uric acid [2]; 150 mg BID (single dose Day 1), Young men, Day 4 AM", "result": "−72", "unit": "%"}, {"measurement": "Change from Baseline serum uric acid", "setting": "serum uric acid [2]; 150 mg BID (single dose Day 1), Young men, Day 7 AM", "result": "−72", "unit": "%"}, {"measurement": "Uric acid levels after a single oral dose", "setting": "serum uric acid [2]; 24 hours after single dose of 50 mg or 150 mg (Day 1), men and women", "result": "Decreased"}, {"measurement": "Reductions from baseline in uric acid", "setting": "serum uric acid [2]; by the morning of Day 4, male and female subjects, 50 mg TID or 150 mg BID", "result": "> 50", "unit": "%"}, {"measurement": "Effect on other common parameters of renal function", "setting": "[3]", "result": "no measurable effect"}, {"measurement": "Fractional excretion of uric acid", "setting": "[3]", "result": "increases"}, {"measurement": "Renal injury", "setting": "[3]", "result": "no sign of renal injury"}, {"measurement": "Inhibition of xanthine oxidase", "setting": "xanthine oxidase", "result": "does not inhibit"}, {"measurement": "Percent change in serum uric acid, individual patients (P# 1-13)", "setting": "serum uric acid [4]; Day 1 6 h (Day 1 0 h = 0.0)", "result": "−12.0% and 4.1% and −4.3% and −8.0% and −12.5% and −8.1% and −13.9% and −8.2% and −5.6%"}, {"measurement": "Percent change in serum uric acid, mean (M) of 13 patients", "setting": "serum uric acid [4]; Day 1 6 h (Day 1 0 h = 0.0)", "result": "−6.9", "unit": "%"}, {"measurement": "Percent change in serum uric acid, individual patients (P# 1-13)", "setting": "serum uric acid [4]; [5]", "result": "−10.7% and −9.6% and −4.3% and −7.3% and −8.9% and −8.1% and −12.0% and −2.6% and −3.5%"}, {"measurement": "Percent change in serum uric acid, mean (M) of 13 patients", "setting": "serum uric acid [4]; [5]", "result": "−6.8", "unit": "%"}, {"measurement": "Percent change in serum uric acid, individual patients (P# 1-13)", "setting": "serum uric acid [4]; Day 2 (Day 1 0 h = 0.0)", "result": "−21.3% and −19.2% and −8.6% and −14.7% and −17.7% and −16.2% and −24.1% and −5.2% and −7.0%"}, {"measurement": "Percent change in serum uric acid, mean (M) of 13 patients", "setting": "serum uric acid [4]; Day 2 (Day 1 0 h = 0.0)", "result": "−13.6", "unit": "%"}, {"measurement": "Percent change in serum uric acid, individual patients (P# 1-13)", "setting": "serum uric acid [4]; Day 3 (Day 1 0 h = 0.0)", "result": "−32.0% and −43.8% and −14.3% and −30.7% and −36.5% and −18.9% and −45.6% and −12.4% and −16.9% and −9.6%"}, {"measurement": "Percent change in serum uric acid, mean (M) of 13 patients", "setting": "serum uric acid [4]; Day 3 (Day 1 0 h = 0.0)", "result": "−26.6", "unit": "%"}, {"measurement": "Percent change in serum uric acid, individual patients (P# 1-13)", "setting": "serum uric acid [4]; Day 4 (Day 1 0 h = 0.0)", "result": "−38.7% and −54.8% and −27.1% and −42.7% and −43.8% and −37.8% and −54.4% and −59.8% and −35.2%"}, {"measurement": "Percent change in serum uric acid, mean (M) of 13 patients", "setting": "serum uric acid [4]; Day 4 (Day 1 0 h = 0.0)", "result": "−41.8", "unit": "%"}, {"measurement": "Percent change in serum uric acid, individual patients (P# 1-13)", "setting": "serum uric acid [4]; Day 5 (Day 1 0 h = 0.0)", "result": "−48.0% and −52.1% and −40.0% and −36.0% and −45.8% and −33.8% and −50.6% and −25.8% and −39.4%"}, {"measurement": "Percent change in serum uric acid, mean (M) of 13 patients", "setting": "serum uric acid [4]; Day 5 (Day 1 0 h = 0.0)", "result": "−41.1", "unit": "%"}, {"measurement": "Percent change in serum uric acid, individual patients (P# 1-13)", "setting": "serum uric acid [4]; Day 6 (Day 1 0 h = 0.0)", "result": "−40.0% and −53.4% and −31.4% and −64.0% and −45.8% and −31.1% and −50.6% and −28.9% and −39.4%"}, {"measurement": "Percent change in serum uric acid, mean (M) of 13 patients", "setting": "serum uric acid [4]; Day 6 (Day 1 0 h = 0.0)", "result": "−43.1", "unit": "%"}, {"measurement": "Percent change in serum uric acid, individual patients (P# 1-13)", "setting": "serum uric acid [4]; Day 6 to Day 7: Day 6 + Day 7", "result": "−44.0% and −56.2% and −36.4% and −56.0% and −46.9% and −31.1% and −53.2% and −34.5% and −40.8%"}]}
